# Results reported in patent US20240279304A1, “DSG2 COMPOSITIONS AND METHODS” (Arvada Therapeutics, Inc., priority 2021, published 2024).
# Columns and labels:
# anti-DSG2 antibody [1] = experiment: anti-DSG2 antibody MSD assay; inhibition of the antibody signal by the fusion polypeptide; antibody at 1000 ng/mL
# anti-DSG2 antibody [2] = experiment: anti-DSG2 antibody MSD assay; inhibition of the antibody signal by the fusion polypeptide; antibody at 200 ng/mL
# [3] = test system: human iPSC-derived cardiomyocytes; experiment: CiPA multielectrode array (MEA) assay, cell index; format: cell-based
# Protocol: To determine the effect of anti-DSG2 antibodies in cardiomyocytes, the cardiac in vitro proarrhythmia (CiPA) assay was performed (Sager et al. Am Heart J 2014; 167:292-300; the contents of which are herein incorporated by reference in its entirety). CiPA is envisioned to consist of four components: (1) an evaluation of the effects of test agents on cardiac ion channel assays; (2) in silico modeling of the cardiac action potential based on the ion channel results to integrate the data with cardiac function; (3) experimental measurement of test agent effects in human ventricular myocytes to confirm the modeling result; and (4) scoring the results. The multielectrode array (MEA) assay is a component of CiPA which uses human induced pluripotent stem cell (iPSC)-derived cardiomyocytes to evaluate two-dimensional excitation propagation by recording spontaneous ECG-like field potentials. The sodium spike quantified below is a measurement of the specific sodium channel current in the cardiomyocyte and is also described in Blinova K, et al. Cell Rep. 2018 Sep. 25; 24(13):3582-3592 (the contents of which are herein incorporated by reference in its entirety). CiPA is considered a clinically validated cardiomyocyte-based assay by the FDA and the EMA. […] The parameters evaluated include measuring a change in the spike in the component of electrical signal propagation (e.g. sodium spike) and cell index—a function of cell impedance and cell number. Changes in sodium spike may be indicative of arrhythmia and a change in cell index (CI) may be indicative of changes to cell connectivity.
# Cell index is inversely related the cell layer's conductivity to electrical current. Increased conductivity across the cell layer, may indicate that there are more gaps in the cell layer, implying that the cells are less well-adhered to each other. Thus, increased conductivity across the cell layer, may result in lower cell index. […] The concentration of anti-DSG2 antibodies varied from 0.00005 μg/mL to 5 μg/mL. […] The concentration of lidocaine varied from 3 μM to 100 μM. […] The concentration of anti-DSG2 antibodies varied from 0.00005 μg/mL to 5 μg/mL.
# [4] = test system: human iPSC cardiomyocytes; experiment: CiPA multielectrode array (MEA) assay, sodium spike; format: cell-based; conditions: anti-DSG2 antibodies 0.5 μg/mL; lidocaine 10 μM; negative controls 0.5 g/mL as printed; 0 to 96 hours
# Protocol: To determine the effect of anti-DSG2 antibodies in cardiomyocytes, the cardiac in vitro proarrhythmia (CiPA) assay was performed (Sager et al. Am Heart J 2014; 167:292-300; the contents of which are herein incorporated by reference in its entirety). CiPA is envisioned to consist of four components: (1) an evaluation of the effects of test agents on cardiac ion channel assays; (2) in silico modeling of the cardiac action potential based on the ion channel results to integrate the data with cardiac function; (3) experimental measurement of test agent effects in human ventricular myocytes to confirm the modeling result; and (4) scoring the results. […] The sodium spike quantified below is a measurement of the specific sodium channel current in the cardiomyocyte and is also described in Blinova K, et al. Cell Rep. […] The parameters evaluated include measuring a change in the spike in the component of electrical signal propagation (e.g. sodium spike) and cell index—a function of cell impedance and cell number. […]
# Commercially available anti-DSG2 antibodies were tested in the cardiomyocyte CiPA assay. […] The voltage (μV) is measured at time intervals of 0, 1 hour, 12 hours, 24 hours, 48 hours, 72 hours, and 96 hours. […]
Molecule,% inhibition (anti-DSG2 antibody [1]) [%],% inhibition (anti-DSG2 antibody [2]) [%],Cell Index (+/- SEM) ([3]; 3 μM),Cell Index (+/- SEM) ([3]; 10 μM),Cell Index (+/- SEM) ([3]; 30 μM),Cell Index (+/- SEM) ([3]; 100 μM),"effect on cell index (in words) ([3]; lidocaine 3 μM to 100 μM, antibodies 0.00005 μg/mL to 5 μg/mL)",effect on cardiomyocyte sodium spike (in words) [4]
"recombinant human desmoglein-2 Fc chimera protein, CF (DSG2FP#1) (Fc fusion)",88.4,63.8,,,,,,
"CCN(CC)CC(=O)Nc1c(C)cccc1C [Lidocaine, lidocaine]",,,19.9 (2.84),20.2 (3.1),18.7 (2.0),11.0 (4.8),marked reduction in cell index and likely cell death,dampen the sodium spike
